Results on eleven compounds are retold here after US8470810B2, “Heterocyclic compounds suitable for treating disorders that respond to modulation of the dopamine D3 receptor” (Abbott GmbH & Co. KG, priority 2004, dated 2013).

Experiment [1] deals with T1, human dopamine D3 receptors (Homo sapiens, UniProt P35462).
T1 construct: expressed in transfected cells
Nature of the experiment: Dopamine D3 receptor binding, displacement of [125I]-iodosulpride. Conditions: for Ki: membranes of HEK-293 cells stably expressing human D3, 0.1 nM [125I]-iodosulpride, 25° C., 60 minutes; for Ki(D2)*/Ki(D3)*: selectivity ratio of the receptor binding constants D2 over D3. In outline:
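Displacement of [125I]-iodosulpride at human D3 receptors in pH 7.4 Tris buffer with NaCl, KCl, CaCl2, MgCl2, 0.1% BSA, 10 μM quinolone and 0.1% ascorbic acid, 60 min at 25 °C, in triplicate. Bound label collected by filtration and counted; Ki from nonlinear regression of inhibition curves.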
For orientation: Loss of bound radioactivity is the signal in a displacement assay; it reports binding, not function.

Experiment [2] concerns the target T2, human dopamine D2L receptors (long isoform) (Homo sapiens, UniProt P14416).
T2 construct: expressed in transfected cells
Nature of the experiment: Dopamine D2L receptor binding, displacement of [125I] iodospiperone. Conditions: membranes of HEK-293 cells stably expressing human D2L; 0.01 nM [125I] iodospiperone; 25° C., 60 minutes; read-out: Ki(D2)*. Summed up:
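Displacement of [125I]iodospiperone from human D2L receptors, triplicates, in 50 mM Tris pH 7.4 with 120 mM NaCl, 5 mM KCl, 2 mM CaCl2, 2 mM MgCl2, 0.1% BSA. Incubated 60 min at 25 °C, then filtered and counted by scintillation. Ki came from iterative nonlinear regression of inhibition curves.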

T2 sequence (P14416 whole entry, canonical isoform): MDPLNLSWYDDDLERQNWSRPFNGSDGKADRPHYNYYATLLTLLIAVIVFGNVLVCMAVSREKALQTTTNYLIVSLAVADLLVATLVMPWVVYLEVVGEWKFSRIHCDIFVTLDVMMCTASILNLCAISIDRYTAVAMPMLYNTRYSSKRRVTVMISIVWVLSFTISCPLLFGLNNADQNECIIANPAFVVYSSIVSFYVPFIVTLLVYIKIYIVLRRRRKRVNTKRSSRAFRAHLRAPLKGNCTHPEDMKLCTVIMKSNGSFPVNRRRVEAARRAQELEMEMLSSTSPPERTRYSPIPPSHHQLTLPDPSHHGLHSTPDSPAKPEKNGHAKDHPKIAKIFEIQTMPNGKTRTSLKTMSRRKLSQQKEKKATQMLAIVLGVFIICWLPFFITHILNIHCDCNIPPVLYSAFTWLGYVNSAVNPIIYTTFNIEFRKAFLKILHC
T1 sequence (P35462 whole entry): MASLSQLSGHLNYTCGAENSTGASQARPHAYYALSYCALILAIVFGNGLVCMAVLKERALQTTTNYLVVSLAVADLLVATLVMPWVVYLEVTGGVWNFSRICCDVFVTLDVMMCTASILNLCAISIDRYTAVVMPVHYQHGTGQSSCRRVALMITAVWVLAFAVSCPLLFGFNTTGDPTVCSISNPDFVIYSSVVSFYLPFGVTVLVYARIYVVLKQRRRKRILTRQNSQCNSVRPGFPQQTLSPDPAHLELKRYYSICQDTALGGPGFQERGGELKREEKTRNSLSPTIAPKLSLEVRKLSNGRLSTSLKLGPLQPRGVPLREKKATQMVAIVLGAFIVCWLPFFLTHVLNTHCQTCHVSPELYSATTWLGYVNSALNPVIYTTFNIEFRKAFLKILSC

Consider `C=CCN1CC[C@H](c2ccc(NS(=O)(=O)c3ccc(C4CC4(F)F)cc3)cc2)C1` (stereo partly drawn) [Example 90, N-[4-((R)-1-Allyl-pyrrolidin-3-yl)-phenyl]-4-(2,2-difluoro-cyclopropyl)benzenesulfonamide], for which the Ki came to 11 nM in experiment [1] and 280 nM in experiment [2]. In addition, the “Ki(D2)*/Ki(D3)*” value in experiment [1] is recorded as 25.

Take `CCCN1CC[C@@H](c2ccc(NS(=O)(=O)c3ccc(CCCF)cc3)cc2)C1` [Example 92, 4-(3-Fluoro-propyl)-N-[4-((S)-1-propyl-pyrrolidin-3-yl)-phenyl]-benzenesulfonamide]: in experiment [1], the Ki was found to be 0.61 nM and the “Ki(D2)*/Ki(D3)*” value was determined as 28. Also, the Ki in experiment [2] amounted to 17.3 nM.

Take `CCCN1CC[C@@H](c2ccc(NS(=O)(=O)c3ccc([C@@H](C)CF)cc3)cc2)C1` [Example 93, 4-((R)-2-Fluoro-1-methyl-ethyl)-N-[4-((S)-1-propyl-pyrrolidin-3-yl)-phenyl]-benzenesulfonamide]: the Ki in experiment [1] was 0.48 nM; in experiment [2], 14.7 nM. Besides, the “Ki(D2)*/Ki(D3)*” value in experiment [1] turned out to be 31.

Regarding `CC(C)c1ccc(S(=O)(=O)Nc2ccc([C@@H]3CCN(CC4CC4)C3)cc2)cc1` [Example 94, N-[4-((S)-1-Cyclopropylmethyl-pyrrolidin-3-yl)-phenyl]-4-isopropyl-benzenesulfonamide], the Ki in experiment [1] was determined as 0.23 nM; in experiment [2] it was 4.7 nM. Moreover, the “Ki(D2)*/Ki(D3)*” value in experiment [1] came to 21.

`CCCN1CC[C@@H](c2ccc(NS(=O)(=O)c3ccc(C(CF)CF)cc3)cc2)C1` [Example 95, 4-(2-Fluoro-1-fluoromethyl-ethyl)-N-[4-((S)-1-propyl-pyrrolidin-3-yl)-phenyl]-benzenesulfonamide]: in experiment [1], the affinity, expressed as Ki, was 1.3 nM and the “Ki(D2)*/Ki(D3)*” value was determined as 22. In addition, the Ki in experiment [2] is 27.9 nM.

Take `CC(C)c1ccc(S(=O)(=O)Nc2ccc([C@@H]3CCN(CCF)C3)cc2)cc1` [Example 96, N-{4-[(S)-1-(2-Fluoro-ethyl)-pyrrolidin-3-yl]-phenyl}-4-isopropyl-benzenesulfonamide]: the Ki in experiment [1] was 0.83 nM; in experiment [2], 57.8 nM. In experiment [1], the “Ki(D2)*/Ki(D3)*” value is listed as 70.

Take `C=CCN1CC[C@@H](c2ccc(NS(=O)(=O)c3ccc(OC(F)(F)F)cc3)cc2)C1` [Example 101, N-[4-((S)-1-Allyl-pyrrolidin-3-yl)-phenyl]-4-trifluoromethoxy-benzenesulfonamide]: the Ki is 3.7 nM in experiment [1] and 268 nM in experiment [2]. In experiment [1], the “Ki(D2)*/Ki(D3)*” value is 73.

As for `O=S(=O)(Nc1ccc([C@@H]2CCNC2)cc1)c1ccc(OC(F)(F)F)cc1` [Example 102, N—((S)-4-Pyrrolidin-3-yl-phenyl)-4-trifluoromethoxy-benzenesulfonamide], in experiment [1], the Ki was 52 nM and the “Ki(D2)*/Ki(D3)*” value worked out at 52. In experiment [2], the Ki amounted to 2710 nM.

For the compound `CCCN1CC[C@@H](c2ccc(NS(=O)(=O)c3ccc(CC(F)(F)F)cc3)cc2)C1` [Example 103, N-[4-((S)-1-Propyl-pyrrolidin-3-yl)-phenyl]-4-(2,2,2-trifluoro-ethyl)benzenesulfonamide], in experiment [1], the Ki was determined as 1.2 nM and the “Ki(D2)*/Ki(D3)*” value was determined as 38. Moreover, the Ki in experiment [2] stood at 45 nM.

For the compound `CCN1CC[C@@H](c2ccc(NS(=O)(=O)c3ccc(OC(F)(F)F)cc3)cc2)C1` [Example 104, N-[4-((S)-1-Ethyl-pyrrolidin-3-yl)-phenyl]-4-trifluoromethoxy-benzenesulfonamide], in experiment [1], the Ki is 8.3 nM and the “Ki(D2)*/Ki(D3)*” value was 43. For the same compound, the Ki in experiment [2] is 352 nM.

With `CCCN1CC[C@@H](c2ccc(NS(=O)(=O)c3ccc(Cl)s3)cc2)C1` [Example 105, 5-Chloro-thiophene-2-sulfonic acid [4-((S)-1-propyl-pyrrolidin-3-yl)-phenyl]-amide], in experiment [1], the Ki was 6.1 nM and the “Ki(D2)*/Ki(D3)*” value was 51. Moreover, the Ki in experiment [2] stood at 309 nM.

As a reminder, the Ki is a measure of affinity in units of concentration, obtained from inhibition or displacement.
